# Marks after values point to notes of the source that are not given here.
# Experiments:
# sperms of senile mice = assay: Quality of sperms in senile mice by CASA; format: in vivo, Kunming mice; details: senile mice aged 12 months, 5 mg/kg oral once every day, two weeks
# Experimental: In the test, Kunming mice aged 12 months were used. Ginsenoside Rg1 was orally administered at a dose of 5 mg/kg, once every day, for two weeks.
# However, the two groups had no difference in terms of the percentage of motility sperms and the percentage of A+B grade. […] The values were expressed as mean value±SD. **P<0.01 vs. the group of senile mice, n=4.
# T, FSH and LH in serum = assay: Hormones (T, FSH, LH) content in serum of mice, gossypol model, radioimmune assay; format: in vivo
# Experimental: The test was conducted by radioimmune assay, with the use of a kit as purchased from China North Institute of Biological Technology.
# male mice = assay: Test of sexual ethology: bestriding time and mating frequency of male mice with estral female mice; format: in vivo, Kunming mice
# Experimental: Kunming male mice (age 10 weeks, weight body 32-36 g), Kunming female mice (age 10 weeks, weight body 30-34 g), as purchased from Laboratory Animal Center of Chinese Academy of Medical Sciences (with the number of certificate SCXK (Jing) 2005-0004), were placed in a clean grade animal house alternately in light and in darkness (12 h:12 h), while taking water and food freely. The test started after the mice had adapted to the environment in the animal house for 5 days. During the period of adapting to the environment, male mice and female mice were isolated from each other.
# In order to correctly reflect the change of male mice in sexual function, we prepared estral female mice by ectomizing their ovaries and inducing them by application of external hormone. After anesthetized with chloral hydrate, female mice were subjected to the steps of ectomizing bilateral ovaries by dorsal approach, ligating uterine tube residue end, and suturing skin, followed by recuperating for one week. The induction by application of hormone was conducted by reference to the literature (Masayoshi Nomura, et al, Physiology & Behavior 91 (2007) 223-228), comprising the steps of subcutaneously injecting estradiol benzoate (30 μg per mouse, is) at 48 h prior to use, and subcutaneously injecting progesterone (500 μg per mouse, is) at 4 h prior to use, to thereby obtain estral female mice.
# Estral female mice were put in a ratio of 2:1 to male mice inside a mating box in which male mice were placed. They were trained for consecutive 5 days, 12 min each day. When the mating reaction of male mice became stable, the mice were grouped with the consideration that the bestriding time in each group of mice was substantially the same, while discarding the mice that had relatively weak reaction and no reaction.
# In darkness, ethological test was carried out in the rearing cage of male mice. Estral female mice and male mice were kept in a ratio of 2:1 inside the same box for 12 min, during which period the bestriding time and mating frequency of the male mice were observed.
# All of the values were expressed by using mean value and standard error (M±SEM), the analytic method used was one-way analysis of variance (ANOVA), and the statistic results were expressed by double star method, i.e., *<0.05, **<0.01.
# [1] = tested on: sperms of cold stress mice; assay: Quality of sperms in mice in cold stress model by CASA; format: in vivo, Kunming mice; details: 14 days
# Experimental: In the test, Kunming mice were used to establish a stress model. The mice were placed in an environment of 4° C. for 8 hours every day, each being kept in a single cage, with fasting and without water, for 14 days, to thereby establish a cold stress model. Ginsenoside Rg1 was administered at two different doses, i.e., 5 mg/kg and 10 mg/kg. Every day, the mice orally took the drug 1 hour before exposure in the cold environment.
# testosterone in serum = assay: Content of testosterone in serum of male mice by radioimmune assay after 20 days of oral administration; format: in vivo
# Experimental: After oral administration of ginsenoside Rg1 for 20 days, the content of testosterone in serum of male mice was tested by radioimmune assay.
# corpus cavernosum = assay: NO release and cGMP content in corpus cavernosum of Newland white rabbit; format: in vivo
# Experimental: 1.2.1 Influence of Ginsenoside Rg1 on No Release and cGMP Content in Corpus Cavernosum of Newland White Rabbit, as Shown in Table 4
# Ginsenoside Rg1 (10 mg/kg) could markedly increase cGMP content in corpus cavernosum as compared with the control group. *P<0.05 vs the control group.
# NO in testis tissue = assay: NO content in testis tissue of mice, gossypol model (NO kit); format: in vivo
# Description: There was no difference between low-dose group and high-dose group. […] The values were expressed as mean value±SD. **P<0.01 vs. model group, n=10.
# healthy men aged 30-50 = assay: Improving sexual function of men, study in volunteers; format: in vivo, human; details: 100-200 mg/d
# Description: The effect of ginsenoside Rg1 on improving sexual function of men had been studied in a few of volunteers (healthy men aged 30-50).
# PDE5 = PDE5 (Homo sapiens, UniProt O76074); assay: Inhibition effect on PDE5 (cGMP degradation, radioimmune autograph technique); format: biochemical
# [2] = tested on: sperms in tail of epididymis; assay: Gossypol aspermatogenesis model: quality of sperms from tail of epididymis by CASA; format: in vivo,  male mice; details: 14th day
compound,measurement,setting,value
"CC(C)=CCC[C@](C)(O[C@@H]1O[C@H](CO)[C@@H](O)[C@H](O)[C@H]1O)[C@H]1CC[C@]2(C)[C@@H]1[C@H](O)C[C@@H]1[C@@]3(C)CC[C@H](O)C(C)(C)[C@@H]3[C@@H](O[C@@H]3O[C@H](CO)[C@@H](O)[C@H](O)[C@H]3O)C[C@]12C [Rg1, ginsenoside Rg1]",A + B grade,sperms of senile mice,18.27 ± 8.37%
same,Motility sperms,sperms of senile mice,40 ± 6.56%
same,Sperm count,sperms of senile mice,133.23 ± 15.99** ×10^6
same,FSH in serum,"T, FSH and LH in serum; 5 mg/kg",5.7 ± 2.0 ng/mL
same,LH in serum,"T, FSH and LH in serum; 5 mg/kg",2.9 ± 1.2 ng/mL
same,T in serum,"T, FSH and LH in serum; 5 mg/kg",0.8 ± 0.3 ng/mL
same,FSH in serum,"T, FSH and LH in serum; 10 mg/kg",4.3 ± 1.9 ng/mL
same,LH in serum,"T, FSH and LH in serum; 10 mg/kg",2.1 ± 0.8 ng/mL
same,T in serum,"T, FSH and LH in serum; 10 mg/kg",1.0 ± 0.5 ng/mL
same,bestriding time of mice,"male mice; 5 mg/kg, 1st day",3.1 ± 4.3 min
same,mating frequency of mice,"male mice; 5 mg/kg, 1st day, 12 min observation",15.4 ± 6.4
same,bestriding time of mice,"male mice; 5 mg/kg, 4th day",2.9 ± 3.4 min
same,mating frequency of mice,"male mice; 5 mg/kg, 4th day",18.7 ± 4.2
same,bestriding time of mice,"male mice; 5 mg/kg, 8th day",3.9 ± 3.1 min
same,mating frequency of mice,"male mice; 5 mg/kg, 8th day",25.6 ± 5.2
same,bestriding time of mice,"male mice; 5 mg/kg, 12th day",7.6 ± 4.1 min
same,mating frequency of mice,"male mice; 5 mg/kg, 12th day",32.8 ± 6.6
same,bestriding time of mice,"male mice; 5 mg/kg, 14th day",6.9 ± 3.5 min
same,mating frequency of mice,"male mice; 5 mg/kg, 14th day",29.3 ± 7.0
same,bestriding time of mice,"male mice; 5 mg/kg, 16th day",8.6 ± 2.8 min
same,mating frequency of mice,"male mice; 5 mg/kg, 16th day",42.1 ± 10.1
same,bestriding time of mice,"male mice; 5 mg/kg, 18th day",9.4 ± 3.7* min
same,mating frequency of mice,"male mice; 5 mg/kg, 18th day",43.7 ± 8.7*
same,bestriding time of mice,"male mice; 5 mg/kg, 20th day",9.5 ± 3.4* min
same,mating frequency of mice,"male mice; 5 mg/kg, 20th day",43.3 ± 7.8*
same,bestriding time of mice,"male mice; 10 mg/kg, 1st day",3.3 ± 2.3 min
same,mating frequency of mice,"male mice; 10 mg/kg, 1st day, 12 min observation",13.8 ± 3.4
same,bestriding time of mice,"male mice; 10 mg/kg, 4th day",3.5 ± 3.1 min
same,mating frequency of mice,"male mice; 10 mg/kg, 4th day",20.1 ± 4.8
same,bestriding time of mice,"male mice; 10 mg/kg, 8th day",4.2 ± 3.6 min
same,mating frequency of mice,"male mice; 10 mg/kg, 8th day",28.3 ± 5.6
same,bestriding time of mice,"male mice; 10 mg/kg, 12th day",8.6 ± 4.3 min
same,mating frequency of mice,"male mice; 10 mg/kg, 12th day",25.3 ± 7.1
same,bestriding time of mice,"male mice; 10 mg/kg, 14th day",7.9 ± 3.7 min
same,mating frequency of mice,"male mice; 10 mg/kg, 14th day",33.3 ± 6.6
same,bestriding time of mice,"male mice; 10 mg/kg, 16th day",9.2 ± 3.6 min
same,mating frequency of mice,"male mice; 10 mg/kg, 16th day",37.9 ± 12.7
same,bestriding time of mice,"male mice; 10 mg/kg, 18th day",9.3 ± 3.6* min
same,mating frequency of mice,"male mice; 10 mg/kg, 18th day",45.1 ± 10.8*
same,bestriding time of mice,"male mice; 10 mg/kg, 20th day",9.8 ± 3.8* min
same,mating frequency of mice,"male mice; 10 mg/kg, 20th day",44.2 ± 9.4*
same,A + B grade,[1]; 5 mg/kg oral,39.26 ± 8.96 %
same,Motility sperm,[1]; 5 mg/kg oral,54.47 ± 8.14 %
same,Sperm count,[1]; 5 mg/kg oral,438.70 ± 94.19 ×10^6
same,A + B grade,[1]; 10 mg/kg oral,32.89 ± 13.42%
same,Motility sperm,[1]; 10 mg/kg oral,44.97 ± 12.07%
same,Sperm count,[1]; 10 mg/kg oral,377.17 ± 42.93 ×10^6
same,content of testosterone in serum of mice,testosterone in serum; 2.5 mg/kg oral,5.11 pmol/mL
same,content of testosterone in serum of mice,testosterone in serum; 5.0 mg/kg oral,5.18 pmol/mL
same,content of testosterone in serum of mice,testosterone in serum; 10.0 mg/kg oral,7.90* pmol · ml^−1
same,NO release in corpus cavernosum,corpus cavernosum; 2.5 mg/kg,27.97 ± 6.90 μmol/g protein
same,cGMP content in corpus cavernosum,corpus cavernosum; 2.5 mg/kg,87.40 ± 42.86 pmol/g
same,NO release in corpus cavernosum,corpus cavernosum; 5.0 mg/kg,28.43 ± 6.04* μmol/g protein
same,cGMP content in corpus cavernosum,corpus cavernosum; 5.0 mg/kg,98.10 ± 48.40 pmol/g
same,NO release in corpus cavernosum,corpus cavernosum; 10.0 mg/kg,30.35 ± 6.70* μmol/g protein
same,cGMP content in corpus cavernosum,corpus cavernosum; 10.0 mg/kg,102.73 ± 50.80* pmol/g
same,NO concentration in testis tissue,NO in testis tissue; 5 mg/kg,16 ± 9 μmol/g protein
same,NO concentration in testis tissue,NO in testis tissue; 10 mg/kg,10 ± 7** μmol/g protein
same,side effects in volunteers,healthy men aged 30-50,"except for dry mouth, no significant side effects occurred"
same,IC50,PDE5,4.34 nM
same,inhibition at 0.0025 µM,"PDE5; inhibitor 2.5 nmol/l, read-out: Inhibition rate on PDE5",46.7%
same,inhibition at 0.005 µM,"PDE5; inhibitor 5.0 nmol/l, read-out: Inhibition rate on PDE5",40%
same,inhibition at 0.01 µM,"PDE5; inhibitor 10.0 nmol/l, read-out: Inhibition rate on PDE5",63.4%
same,inhibition at 0.04 µM,"PDE5; inhibitor 40.0 nmol/l, read-out: Inhibition rate on PDE5",100%
same,inhibition at 0.08 µM,"PDE5; inhibitor 80.0 nmol/l, read-out: Inhibition rate on PDE5",100%
same,Number of sperms,[2]; 5 mg/kg every day + gossypol 50 mg/kg every other day,170 ± 36**^# 10^6 · ml−1
same,Motility of sperms (A + B),[2]; 5 mg/kg every day + gossypol,28 ± 6%
same,Viability rate of sperms,[2]; 5 mg/kg every day + gossypol,50 ± 10 %
same,Number of sperms,[2]; 10 mg/kg every day + gossypol 50 mg/kg every other day,225 ± 36**^## 10^6 · ml−1
same,Motility of sperms (A + B),[2]; 10 mg/kg every day + gossypol,45 ± 8 %
same,Viability rate of sperms,[2]; 10 mg/kg every day + gossypol,61 ± 9 %

# Source: patent US8765695B2, “Use of ginsenoside RG1, its metabolites ginsenoside RH1 and/or PPT” (priority 2007, dated 2014)
